Assay results reported in EP3046573B1, “AMYLIN ANALOGUES” (Zealand Pharma A/S, priority 2013, dated 2015).
Like-named read-outs stand apart in the source and are kept apart here. Numbered stars: 1 amine (or outer) side, 2 acyl side, 3 side chain; on linkers, the order of the positions; unused ones are H or OH. Bridge positions count the residues as written; N and C are the ends. Square brackets hold non-standard residues; d marks the D form. Peptide text beside a SMILES is read from it. * marks the point of attachment. C20 diacid = O=C(O)CCCCCCCCCCCCCCCCCCC(=O)*; γGlu = O=C(O)[C@H](CCC(=O)[*:2])N[*:1]; NMeI = CC[C@H](C)[C@H](NC)C(=O)O; Dap = NC[C@H](N)C(=O)O; Sar = CNCC(=O)O

Assays:
[1] = Solubility assessment (turbidity absorbance at 325 nm); format: physicochemical; conditions: stock 2 mg/ml diluted 1:1, ambient temperature (typically 25°C), n=1; for Solubility, Acetate buffer pH 4: 100 mM acetate buffer pH 4.0; for Solubility, Acetate buffer pH 5: 100 mM acetate buffer pH 5.0; for Solubility, Histidine buffer pH 6: 100 mM histidine buffer pH 6.0; for Solubility, Histidine buffer pH 7: 100 mM histidine buffer pH 7.0; for Solubility, Phosphate buffer pH 6: 100 mM phosphate buffer pH 6.0; for Solubility, Phosphate buffer pH 7: 100 mM phosphate buffer pH 7.0; for Solubility, Phosphate buffer pH 7.5: 100 mM phosphate buffer pH7.5
Summary of the method: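 Peptide stock (2 mg/ml, water pH 2.5) diluted 1:1 into 100 mM acetate (pH 4.0, 5.0), histidine (pH 6.0, 7.0) or phosphate (pH 6.0–7.5) buffer; absorbance at 325 nm read at about 25°C, n=1. A325 ≤ 0.02 taken as solubility ≥ 1 mg/ml.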

[2] = biological target: T1, human calcitonin receptor (hCTR2) (Homo sapiens, UniProt P30988); test: hCTR2 assay: induction of cAMP (AlphaScreen cAMP Assay kit) in COS7 cells expressing hCTR2; format: cell-based
T1 construct: expressed in transfected cells
T1 sequence (P30988 25-474): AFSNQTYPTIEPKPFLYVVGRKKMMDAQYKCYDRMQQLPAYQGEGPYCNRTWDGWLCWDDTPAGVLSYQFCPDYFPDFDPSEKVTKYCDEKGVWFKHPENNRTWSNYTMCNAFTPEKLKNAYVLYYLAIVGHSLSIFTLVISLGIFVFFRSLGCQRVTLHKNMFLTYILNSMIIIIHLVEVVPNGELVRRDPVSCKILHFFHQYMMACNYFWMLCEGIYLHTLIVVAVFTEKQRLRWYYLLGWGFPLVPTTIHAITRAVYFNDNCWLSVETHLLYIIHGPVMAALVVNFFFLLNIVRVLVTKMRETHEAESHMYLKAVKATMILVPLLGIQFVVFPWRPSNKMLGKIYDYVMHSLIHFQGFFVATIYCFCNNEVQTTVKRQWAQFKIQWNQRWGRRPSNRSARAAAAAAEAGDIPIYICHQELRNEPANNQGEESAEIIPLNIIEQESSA
Summary of the method: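 COS7 stable hCTR2 clone (RAMP-free); peptide dose-response 15 min 37° C in Tyrode pH 7.4 + 100 µM IBMX + 0.1% casein; lysis 10 min RT; AlphaScreen cAMP; 4PL fit.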

SMILES | Solubility, Acetate buffer pH 4 [1] | Solubility, Acetate buffer pH 5 [1] | Solubility, Histidine buffer pH 6 [1] | Solubility, Histidine buffer pH 7 [1] | Solubility, Phosphate buffer pH 6 [1] | Solubility, Phosphate buffer pH 7 [1] | Solubility, Phosphate buffer pH 7.5 [1] | EC50 ([2]; cAMP induction in COS7 cells expressing hCTR2, average of a minimum of 3 determinations, read-out: hCTR2 EC50) [nM] | EC50 [2] [nM]
CC[C@H](C)[C@@H](C(=O)N[C@@H](CC(C)C)C(=O)N[C@@H](CO)C(=O)N[C@@H](CO)C(=O)N[C@H](C(=O)N[C@@H](CC(N)=O)C(=O)N[C@H](C(=O)NCC(=O)N[C@@H](CO)C(=O)N[C@@H](CC(N)=O)C(=O)N[C@H](C(=O)N1CCC[C@H]1C(N)=O)[C@@H](C)O)C(C)C)[C@@H](C)O)N(C)C(=O)CN(C)C(=O)[C@H](Cc1ccccc1)NC(=O)[C@H](CC(N)=O)NC(=O)[C@H](CC(N)=O)NC(=O)[C@H](CO)NC(=O)[C@H](CO)NC(=O)[C@H](Cc1c[nH]cn1)NC(=O)[C@H](CC(C)C)NC(=O)[C@H](Cc1ccccc1)NC(=O)[C@H](CCC(=O)O)NC(=O)[C@H](C)NC(=O)[C@H](CC(C)C)NC(=O)[C@H](CCCNC(=N)N)NC(=O)[C@H](CCC(N)=O)NC(=O)[C@@H](NC(=O)[C@H](C)NC(=O)[C@@H]1CSSC[C@H](NC(=O)[C@H](CCCNC(=N)N)NC(=O)CC[C@H](NC(=O)CCCCCCCCCCCCCCCCCCC(=O)O)C(=O)O)C(=O)N[C@@H](CC(N)=O)C(=O)N[C@@H]([C@@H](C)O)C(=O)N[C@@H](C)C(=O)N[C@@H]([C@@H](C)O)C(=O)N1)[C@@H](C)O [Compound 40, [19CD]-isoGlu-RC()NTATC()ATQRLAEFLHSSNNF-Gly(Me)-Ile(Me)-LSSTNVGSNTP-NH2] ({C20 diacid-γGlu}-RCNTATCATQRLAEFLHSSNNF[Sar][NMeI]LSSTNVGSNTP-NH2; disulfide 2-7) | SS (SS indicates solubility ≥ 1mg/ml) | SS (SS indicates solubility ≥ 1mg/ml) | SS (SS indicates solubility ≥ 1mg/ml) | SS (SS indicates solubility ≥ 1mg/ml) | SS (SS indicates solubility ≥ 1mg/ml) | SS (SS indicates solubility ≥ 1mg/ml) | SS (SS indicates solubility ≥ 1mg/ml) | 0.38 | 
CC[C@H](C)[C@@H](C(=O)N[C@@H](CC(C)C)C(=O)N[C@@H](CO)C(=O)N[C@@H](CO)C(=O)N[C@H](C(=O)N[C@@H](CC(N)=O)C(=O)N[C@H](C(=O)NCC(=O)N[C@@H](CO)C(=O)N[C@@H](CC(N)=O)C(=O)N[C@H](C(=O)N1CCC[C@H]1C(N)=O)[C@@H](C)O)C(C)C)[C@@H](C)O)N(C)C(=O)CN(C)C(=O)[C@H](Cc1ccccc1)NC(=O)[C@H](CC(N)=O)NC(=O)[C@H](CO)NC(=O)[C@H](CO)NC(=O)[C@H](Cc1c[nH]cn1)NC(=O)[C@H](Cc1c[nH]cn1)NC(=O)[C@H](CC(C)C)NC(=O)[C@H](Cc1ccccc1)NC(=O)[C@H](CCC(=O)O)NC(=O)[C@H](C)NC(=O)[C@H](CC(C)C)NC(=O)[C@H](CCCNC(=N)N)NC(=O)[C@H](CCC(N)=O)NC(=O)[C@@H](NC(=O)[C@H](C)NC(=O)[C@@H]1CSSC[C@H](NC(=O)[C@H](CCCNC(=N)N)NC(=O)CC[C@H](NC(=O)CCCCCCCCCCCCCCCCCCC(=O)O)C(=O)O)C(=O)N[C@@H](CC(N)=O)C(=O)N[C@@H]([C@@H](C)O)C(=O)N[C@@H](C)C(=O)N[C@@H]([C@@H](C)O)C(=O)N1)[C@@H](C)O [Compound 38, [19CD]-isoGlu-RC()NTATC()ATQRLAEFLHHSSNF-Gly(Me)-Ile(Me)-LSSTNVGSNTP-NH2] ({C20 diacid-γGlu}-RCNTATCATQRLAEFLHHSSNF[Sar][NMeI]LSSTNVGSNTP-NH2; disulfide 2-7) | II (II indicates solubility ≤ 1 mg/ml) | II (II indicates solubility ≤ 1 mg/ml) | II (II indicates solubility ≤ 1 mg/ml) | II (II indicates solubility ≤ 1 mg/ml) | II (II indicates solubility ≤ 1 mg/ml) | II (II indicates solubility ≤ 1 mg/ml) | II (II indicates solubility ≤ 1 mg/ml) |  | 0.16
CC[C@H](C)[C@@H](C(=O)N[C@@H](CC(C)C)C(=O)N[C@@H](CO)C(=O)N[C@@H](CO)C(=O)N[C@H](C(=O)N[C@@H](CC(N)=O)C(=O)N[C@H](C(=O)NCC(=O)N[C@@H](CO)C(=O)N[C@@H](CC(N)=O)C(=O)N[C@H](C(=O)N[C@@H](Cc1ccc(O)cc1)C(N)=O)[C@@H](C)O)C(C)C)[C@@H](C)O)N(C)C(=O)[C@H](C)NC(=O)CN(C)C(=O)[C@H](Cc1ccccc1)NC(=O)[C@H](CC(N)=O)NC(=O)[C@H](CC(N)=O)NC(=O)[C@H](CO)NC(=O)[C@H](CO)NC(=O)[C@H](CCCNC(=N)N)NC(=O)[C@H](Cc1c[nH]cn1)NC(=O)[C@H](CC(C)C)NC(=O)[C@H](Cc1ccccc1)NC(=O)[C@H](CCC(=O)O)NC(=O)[C@H](C)NC(=O)[C@H](CC(C)C)NC(=O)[C@H](CCCNC(=N)N)NC(=O)[C@H](CCC(N)=O)NC(=O)[C@@H](NC(=O)[C@H](C)NC(=O)[C@@H]1CSSC[C@H](NC(=O)[C@H](CCCNC(=N)N)NC(=O)CC[C@H](NC(=O)CCCCCCCCCCCCCCCCCCC(=O)O)C(=O)O)C(=O)N[C@@H](CC(N)=O)C(=O)N[C@@H]([C@@H](C)O)C(=O)N[C@@H](C)C(=O)N[C@@H]([C@@H](C)O)C(=O)N1)[C@@H](C)O [Compound 156, [19CD]-isoGlu-RC()NTATC()ATQRLAEFLHRSSNNF-Gly(Me)-A-Ile(Me)-LSSTNVGSNTY-NH2] ({C20 diacid-γGlu}-RCNTATCATQRLAEFLHRSSNNF[Sar]A[NMeI]LSSTNVGSNTY-NH2; disulfide 2-7) | SS (SS indicates solubility ≥ 1mg/ml) | SS (SS indicates solubility ≥ 1mg/ml) | SS (SS indicates solubility ≥ 1mg/ml) | II (II indicates solubility ≤ 1 mg/ml) | SS (SS indicates solubility ≥ 1mg/ml) | II (II indicates solubility ≤ 1 mg/ml) | II (II indicates solubility ≤ 1 mg/ml) |  | 0.54
CC[C@H](C)[C@@H](C(=O)N[C@@H](CC(C)C)C(=O)N[C@@H](CO)C(=O)N[C@@H](CO)C(=O)N[C@H](C(=O)N[C@@H](CC(N)=O)C(=O)N[C@H](C(=O)NCC(=O)N[C@@H](CO)C(=O)N[C@@H](CC(N)=O)C(=O)N[C@H](C(=O)N1CCC[C@H]1C(N)=O)[C@@H](C)O)C(C)C)[C@@H](C)O)N(C)C(=O)[C@H](C)NC(=O)CN(C)C(=O)[C@H](Cc1ccccc1)NC(=O)[C@H](CC(N)=O)NC(=O)[C@H](CC(N)=O)NC(=O)[C@H](CO)NC(=O)[C@H](CO)NC(=O)[C@H](Cc1c[nH]cn1)NC(=O)[C@H](Cc1c[nH]cn1)NC(=O)[C@H](CC(C)C)NC(=O)[C@H](Cc1ccccc1)NC(=O)[C@H](CCC(=O)O)NC(=O)[C@H](C)NC(=O)[C@H](CC(C)C)NC(=O)[C@H](CCCNC(=N)N)NC(=O)[C@H](CCC(N)=O)NC(=O)[C@@H](NC(=O)[C@H](C)NC(=O)[C@@H]1CSSC[C@H](NC(=O)[C@H](CN)NC(=O)CC[C@H](NC(=O)CCCCCCCCCCCCCCCCCCC(=O)O)C(=O)O)C(=O)N[C@@H](CC(N)=O)C(=O)N[C@@H]([C@@H](C)O)C(=O)N[C@@H](C)C(=O)N[C@@H]([C@@H](C)O)C(=O)N1)[C@@H](C)O [Compound 67, [19CD]-isoGlu-Dap-C()NTATC()ATQRLAEFLHHSSNNF-Gly(Me)-A-Ile(Me)-LSSTNVGSNTP-NH2] ({C20 diacid-γGlu}-[Dap]CNTATCATQRLAEFLHHSSNNF[Sar]A[NMeI]LSSTNVGSNTP-NH2; disulfide 2-7) | SS (SS indicates solubility ≥ 1mg/ml) | SS (SS indicates solubility ≥ 1mg/ml) | SS (SS indicates solubility ≥ 1mg/ml) | SS (SS indicates solubility ≥ 1mg/ml) | SS (SS indicates solubility ≥ 1mg/ml) | SS (SS indicates solubility ≥ 1mg/ml) | SS (SS indicates solubility ≥ 1mg/ml) |  | 0.19
